# Measured values from US20250049705A1, “PHARMACEUTICAL COMPOSITION COMPRISING TIGECYCLINE” (ZAMBON S.p.A., priority 2021, published 2025).
# Assays:
# [1] = Storage of a solution of tigecycline (degradation in aqueous solution); format: physicochemical; details: degradation by oxidation and epimerization; 24 hours at 5° C., 25° C. and 40° C.
# Mycobacterium abscessus = test: Anti-mycobacterial activity in infected THP-1 macrophages (CFU of cell lysates); format: cell-based
# Protocol: Modification of the Dulbecco Eagle medium (Cellgro 15-017-cv) supplemented with: • Heat-inactivated fetal calf serum (Atlas Biologicals, Fort Collins, CO, F-0500-A) (10%) • LCM (10%)
# Medium conditioned by L929: L-929 (CCL-1) (ATCC) cells secrete the macrophage colony-stimulating factor (M-CSF), the cytokine that differentiates bone marrow macrophages/monocyte progenitors into a homogeneous population of mature macrophages. They are seeded at 4.7×10^5 cells in 55 ml of DMEM+10% of fetal calf serum in a ball of 75 cm2. Cells are left to grow for 3 days and then the supernatant is collected and filtered through a 0.45 μm filter, aliquoted and frozen at −20° C.
# The cell-free filtrate is used in DMEM media. • L-glutamine (Sigma G-7513) (2 mM) • HEPES buffer (Sigma H-0887) (10 mM) Antibiotic/antimycotic (Sigma A-9909) (1×) • non-essential amino acids MEM (Sigma M-7145) (1×) • 2-mercaptoethanol (Sigma M-6250) (50 nM)
# THP-1 cells were expanded for 2 weeks.
# Complete DMEM media free of antibiotic/antimycotic were not changed during the 3-day test.
# On day 0, the media were removed from the cells and replaced with 0.2 mL of antibiotic/antimycotic-free DMEM containing Mycobacterium abscessus at a ratio of 10 bacteria per macrophage.
# The tissue culture plates were placed inside closed Ziploc bags and transported to the incubator. Once inside the incubator, the bags were opened. The cells were incubated with the bacteria for 2 hours.
# After the infection, the extracellular bacteria were removed by washing each well once with PBS. Then 2 mL of complete DMEM medium free of antibiotics/antimycotics and various drug concentrations were added.
# Each drug concentration was tested in triplicate. Culture plates were incubated with antibiotics at 37° C.+5% CO2 for 3 days.
smiles,measurement,setting,value
"CN(C)c1cc(NC(=O)CNC(C)(C)C)c(O)c2c1C[C@H]1C[C@H]3[C@H](N(C)C)C(O)=C(C(N)=O)C(=O)[C@@]3(O)C(O)=C1C2=O [Pure Tigecycline, tigecycline]",stability in aqueous solution,[1],extremely unstable
same,Day 1 CFU,Mycobacterium abscessus; pure tigecycline 1 μg/ml,287 CFU
same,Day 2 CFU,Mycobacterium abscessus; pure tigecycline 1 μg/ml,2067 CFU
same,Day 3 CFU,Mycobacterium abscessus; pure tigecycline 1 μg/ml,2667 CFU
same,Day 1 CFU,Mycobacterium abscessus; pure tigecycline 2 μg/ml,263 CFU
same,Day 2 CFU,Mycobacterium abscessus; pure tigecycline 2 μg/ml,203 CFU
same,Day 3 CFU,Mycobacterium abscessus; pure tigecycline 2 μg/ml,1743 CFU
same,Day 1 CFU,Mycobacterium abscessus; pure tigecycline 4 μg/ml,427 CFU
same,Day 2 CFU,Mycobacterium abscessus; pure tigecycline 4 μg/ml,123 CFU
same,Day 3 CFU,Mycobacterium abscessus; pure tigecycline 4 μg/ml,267 CFU
same,Day 1 CFU,Mycobacterium abscessus; pure tigecycline 8 μg/ml,303 CFU
same,Day 2 CFU,Mycobacterium abscessus; pure tigecycline 8 μg/ml,203 CFU
same,Day 3 CFU,Mycobacterium abscessus; pure tigecycline 8 μg/ml,220 CFU
same,Day 1 CFU,Mycobacterium abscessus; pure tigecycline 16 μg/ml,333 CFU
same,Day 2 CFU,Mycobacterium abscessus; pure tigecycline 16 μg/ml,203 CFU
same,Day 3 CFU,Mycobacterium abscessus; pure tigecycline 16 μg/ml,153 CFU
same,Day 1 CFU,Mycobacterium abscessus; pure tigecycline 24 μg/ml,287 CFU
same,Day 2 CFU,Mycobacterium abscessus; pure tigecycline 24 μg/ml,90 CFU
same,Day 3 CFU,Mycobacterium abscessus; pure tigecycline 24 μg/ml,143 CFU
